This experiment addresses BRAF^V600E protein (Homo sapiens, UniProt P15056, V600E). Briefly: HiBiT cellular BRAF V600E degradation assay. The conditions noted are these: 24 h incubation; for DC50: A375.10 cells (HiBiT tag knocked in at N-terminal of BRAF V600E), concentration at which 50% of total cellular BRAF V600E is degraded; for Emax: read-out: HiBit 24 h Emax. The format is cell-based. The source says: DMEM no-phenol red medium supplemented with L-glutamine was purchased from (Corning). Fetal bovine serum (FBS) was purchased from Gibco (Grand Island, NY, USA). Nano-Glo® HiBiT Lytic Assay Buffer & Reagents were purchased from Promega (Madison, WI, USA). […] Cell culture flasks and 384-well black flat-bottom polystyrene TC-treated microplates were acquired from Corning (Corning, NY, USA).
HiBiT Cellular BRAFv^600E Degradation Assay
Prior to the assay, the A375.10 cell line is maintained in DMEM no-phenol red medium supplemented with 10% fetal bovine serum (FBS). […] Briefly, test compounds were added to the 384-well plate from a top concentration of 10 μM with 11 half log dilutions of compound, plated in duplicate. Then, 30 uL of a suspension of A375.10 cell lines was dispensed into columns 1-24 of the 384-well plates at a cell density of 7500 cells per well. The plates were kept at 37° C. with 5% CO2 for the duration of the assay (6 or 24 hr). After the desired incubation time with compound, 30 uL of Nano-Glo® HiBiT Lytic Buffer containing LgBiT protein (diluted 1:100) and luminescence substrate (diluted 1:50) were added to the cells in columns 1-23 of the assay plate. The plate was the incubated for 30 min on the bench at room temperature. Finally, HiBiT luminescence signal was acquired on EnVision™ Multilabel Reader (PerkinElmer, Santa Clara, CA, USA).
Quantification of luminescence responses measured in the presence of compound were normalized to a high signal/no degradation control (untreated cells+lytic detection reagent) and a low signal/full degradation control (untreated cells, no lytic detection reagent). Data were analyzed with a 4-parameter logistic fit to generate sigmoidal dose-response curves. […] The Emax, or maximum effect of each compound, represents the amount of residual protein remaining in the cell following compound treatment.
Background: With HiBiT, luminescence reflects the tagged protein that the partner subunit can reach.

Where [1] appears, read: A375.10 cells, Emax = amount of residual protein remaining in the cell after compound treatment.

Chain of BRAF^V600E protein (P15056 whole entry V600E): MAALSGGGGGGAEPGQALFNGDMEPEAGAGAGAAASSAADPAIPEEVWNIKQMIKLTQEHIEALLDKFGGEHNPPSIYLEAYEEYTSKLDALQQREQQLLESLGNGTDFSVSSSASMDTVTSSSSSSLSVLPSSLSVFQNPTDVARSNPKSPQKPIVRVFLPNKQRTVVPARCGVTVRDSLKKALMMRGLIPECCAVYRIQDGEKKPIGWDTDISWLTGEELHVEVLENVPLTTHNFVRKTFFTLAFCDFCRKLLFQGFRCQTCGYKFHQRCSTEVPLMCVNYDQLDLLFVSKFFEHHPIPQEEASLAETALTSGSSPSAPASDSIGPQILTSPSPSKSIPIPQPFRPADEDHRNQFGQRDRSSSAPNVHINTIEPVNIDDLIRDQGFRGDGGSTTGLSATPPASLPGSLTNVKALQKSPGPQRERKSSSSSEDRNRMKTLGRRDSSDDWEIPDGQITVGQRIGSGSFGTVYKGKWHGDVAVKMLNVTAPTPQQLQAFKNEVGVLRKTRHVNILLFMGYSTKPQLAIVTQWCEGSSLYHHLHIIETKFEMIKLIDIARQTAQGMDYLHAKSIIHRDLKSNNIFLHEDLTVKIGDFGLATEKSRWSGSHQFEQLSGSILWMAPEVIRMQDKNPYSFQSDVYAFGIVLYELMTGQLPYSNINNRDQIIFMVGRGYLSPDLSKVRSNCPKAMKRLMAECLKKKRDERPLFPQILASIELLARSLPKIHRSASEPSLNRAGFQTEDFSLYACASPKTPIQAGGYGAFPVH

One may read the DC50 as the midpoint of the concentration-degradation curve. Lower therefore signals degradation at low concentration. One may read the Emax as the maximal effect, on the per cent scale that the assay sets. In turn, `[2H][C@@]1(c2ccc(N3CCC(O)(CC(=O)N4CCN(c5ncc(-c6cnc7[nH]cc(C(=O)c8c(F)ccc(NS(=O)(=O)N(C)CC)c8F)c7c6)cn5)CC4)CC3)c(F)c2)CCC(=O)NC1=O` (single isomer, unassigned) [Example 158c] showed a DC50 of 1.99 nM. Also, under setting [1], the Emax came out at 7.84%.
The like results for `CCN(C)S(=O)(=O)Nc1ccc(F)c(C(=O)c2c[nH]c3ncc(-c4cnc(N5CC6(CC(C7CCN(c8ccc(NC9CCC(=O)NC9=O)cc8F)CC7)C6)C5)nc4)cc23)c1F` (stereo not drawn) [Example 199, 5-[2-[6-[1-[4-[(2,6-dioxo-3-piperidyl)amino]-2-fluoro-phenyl]-4-piperidyl]-2-azaspiro[3.3]heptan-2-yl]pyrimidin-5-yl]-3-[3-[[ethyl(methyl)sulfamoyl]amino]-2,6-difluoro-benzoyl]-1H-pyrrolo[2,3-b]pyridine] were, in that order, 28.3 nM and 7.17%.
The like results for `CCN(C)S(=O)(=O)Nc1ccc(F)c(C(=O)c2c[nH]c3ncc(-c4ccc(CN5CCN(CC(=O)N6CCC(c7ccc(NC8CCC(=O)NC8=O)cc7)CC6)CC5)cc4)cc23)c1F` (stereo not drawn) [Example 94, 5-[4-[[4-[2-[4-[4-[(2,6-dioxo-3-piperidyl)amino]phenyl]-1-piperidyl]-2-oxo-ethyl]piperazin-1-yl]methyl]phenyl]-3-[3-[[ethyl(methyl)sulfamoyl]amino]-2,6-difluoro-benzoyl]-1H-pyrrolo[2,3-b]pyridine] were, in that order, 21.2 nM and 12.8%.
On the same counts, the results for `CCCS(=O)(=O)Nc1ccc(F)c(C(=O)c2c[nH]c3ncc(-c4cnc(N5CCN(C(=O)CN6CCC(c7ccc(OC8CCC(=O)NC8=O)cc7)CC6)CC5)nc4)cc23)c1F` (stereo not drawn) [Example 2, N-[3-[5-[2-[4-[2-[4-[4-[(2,6-dioxo-3-piperidyl)oxy]phenyl]-1-piperidyl]acetyl]piperazin-1-yl]pyrimidin-5-yl]-1H-pyrrolo[2,3-b]pyridine-3-carbonyl]-2,4-difluoro-phenyl]propane-1-sulfonamide] are 12.2 nM and 7.81%.
Consider `CCN(C)S(=O)(=O)Nc1ccc(F)c(C(=O)c2c[nH]c3ncc(-c4ccc(N5CCC(NC(=O)CN6CCC(c7ccc(NC8CCC(=O)NC8=O)cc7)CC6)CC5)cc4)cc23)c1F.O=CO` (stereo not drawn) [Example A67, 2-[4-[4-[(2,6-Dioxopiperidin-3-yl)amino]phenyl]piperidin-1-yl]-N-[1-[4-[3-[3-[[ethyl(methyl)sulfamoyl]amino]-2,6-difluorobenzoyl]-1H-pyrrolo[2,3-b]pyridin-5-yl]phenyl]piperidin-4-yl]acetamide; formic acid], for which it took 7 nM to reach half-maximal degradation (formic acid) (DC50). Also, the “HiBit 24 h Emax” value (A375.10 cells, Emax = amount of residual protein remaining in the cell after compound treatment, formic acid) stood at 11%.
Molecule `CCN(C)S(=O)(=O)Nc1ccc(F)c(C(=O)c2c[nH]c3ncc(-c4cnc(N5CCC(NC(=O)C6CCN(c7ccc(NC8CCC(=O)NC8=O)cc7F)CC6)CC5)nc4)cc23)c1F` (stereo not drawn) [Example 136, 1-[4-[(2,6-dioxo-3-piperidyl)amino]-2-fluoro-phenyl]-N-[1-[5-[3-[3-[[ethyl(methyl)sulfamoyl]amino]-2,6-difluoro-benzoyl]-1H-pyrrolo[2,3-b]pyridin-5-yl]pyrimidin-2-yl]-4-piperidyl]piperidine-4-carboxamide] returned a half-maximal degradation concentration (DC50) of 3.26 nM. Further, the Emax under setting [1] is 7.37%.
`CCN(C)S(=O)(=O)Nc1ccc(F)c(C(=O)c2c[nH]c3ncc(-c4cnc(N5CCN(C(=O)CN6CCC(c7ccc(NC8CCC(=O)NC8=O)cc7)C(F)(F)C6)CC5)nc4)cc23)c1F` (stereo not drawn) [Example 30, 5-[2-[4-[2-[4-[4-[(2,6-dioxo-3-piperidyl)amino]phenyl]-3,3-difluoro-1-piperidyl]acetyl]piperazin-1-yl]pyrimidin-5-yl]-3-[3-[[ethyl(methyl)sulfamoyl]amino]-2,6-difluoro-benzoyl]-1H-pyrrolo[2,3-b]pyridine] came in with a DC50 of 4.27 nM. Further, the maximal effect (Emax) under setting [1] was 7.84%.
On to `CCN(C)S(=O)(=O)Nc1ccc(F)c(C(=O)c2c[nH]c3ncc(-c4cnc(N5CCN(C(=O)[C@H]6C[C@@H](N7CCC(c8ccc(NC9CCC(=O)NC9=O)cc8)CC7)C6)CC5)nc4)cc23)c1F` (stereo partly drawn) [Example A78, 5-[2-[4-[3-[4-[4-[(2,6-Dioxopiperidin-3-yl)amino]phenyl]piperidin-1-yl]cyclobutanecarbonyl]piperazin-1-yl]pyrimidin-5-yl]-3-[3-[[ethyl(methyl)sulfamoyl]amino]-2,6-difluorobenzoyl]-1H-pyrrolo[2,3-b]pyridine], for which it took 8.93 nM to reach half-maximal degradation (DC50). Under setting [1], the Emax is 15.4%.
On the same counts, the results for `CCN(C)S(=O)(=O)Nc1ccc(F)c(C(=O)c2c[nH]c3ncc(-c4ccc(N5CCN(C(=O)CC6(O)CCN(c7ccc(NC8CCC(=O)NC8=O)cc7)CC6)CC5)nc4)cc23)c1F` (stereo not drawn) [Example 76, 5-[6-[4-[2-[1-[4-[(2,6-dioxo-3-piperidyl)amino]phenyl]-4-hydroxy-4-piperidyl]acetyl]piperazin-1-yl]-3-pyridyl]-3-[3-[[ethyl(methyl)sulfamoyl]amino]-2,6-difluoro-benzoyl]-1H-pyrrolo[2,3-b]pyridine] are 7.81 nM and 14.2%.
As for `CCN(C)S(=O)(=O)Nc1ccc(F)c(C(=O)c2c[nH]c3ncc(-c4cnc(N5CCN(C(=O)CC6CCN(c7ccc8c(N9CCC(=O)NC9=O)nn(C)c8c7)CC6)CC5)nc4)cc23)c1F` [Example 56, 3-(2,4-dioxohexahydropyrimidin-1-yl)-6-[4-[2-[4-[5-[3-[3-[[ethyl(methyl)sulfamoyl]amino]-2,6-difluoro-benzoyl]-1H-pyrrolo[2,3-b]pyridin-5-yl]pyrimidin-2-yl]piperazin-1-yl]-2-oxo-ethyl]-1-piperidyl]-1-methyl-indazole], half-maximal degradation (DC50) was put at 5.12 nM. Besides, under setting [1], the Emax was 14.3%.
The like results for `CCN(C)S(=O)(=O)Nc1ccc(F)c(C(=O)c2c[nH]c3ncc(-c4cnc(N5CCN(C(=O)CC6(O)CCN(c7ccc(NC8CCC(=O)NC8=O)cc7)CC6)CC5)nc4)cc23)c1F` (stereo not drawn) [Example 38, 5-[2-[4-[2-[1-[4-[(2,6-dioxo-3-piperidyl)amino]phenyl]-4-hydroxy-4-piperidyl]acetyl]piperazin-1-yl]pyrimidin-5-yl]-3-[3-[[ethyl(methyl)sulfamoyl]amino]-2,6-difluoro-benzoyl]-1H-pyrrolo[2,3-b]pyridine] were, in that order, 4.44 nM and 13.4%.
On the same counts, the results for `O=C1CCC(Nc2ccc(C3CCN(CCCC(=O)N4CC(c5ccc(-c6cnc7[nH]cc(C(=O)c8c(F)ccc(NS(=O)(=O)N9CCCC9)c8F)c7c6)cc5)C4)CC3)cc2)C(=O)N1` (stereo not drawn) [Example A89, N-[3-[5-[4-[1-[4-[4-[4-[(2,6-dioxopiperidin-3-yl)amino]phenyl]piperidin-1-yl]butanoyl]azetidin-3-yl]phenyl]-1H-pyrrolo[2,3-b]pyridine-3-carbonyl]-2,4-difluorophenyl]pyrrolidine-1-sulfonamide] are 73 nM and 12%.
On the same counts, the results for `CCN(C)S(=O)(=O)Nc1ccc(F)c(C(=O)c2c[nH]c3ncc(-c4cnc(N5CCC(NC(=O)CN6CCC(c7ccc(OC8CCC(=O)NC8=O)cc7)CC6)CC5)nc4)cc23)c1F` (stereo not drawn) [Example A59, 2-[4-[4-(2,6-Dioxopiperidin-3-yl)oxyphenyl]piperidin-1-yl]-N-[1-[5-[3-[3-[[ethyl(methyl)sulfamoyl]amino]-2,6-difluorobenzoyl]-1H-pyrrolo[2,3-b]pyridin-5-yl]pyrimidin-2-yl]piperidin-4-yl]acetamide;formic acid] are 60 nM and 13%.
In turn, `CCN(C)S(=O)(=O)Nc1ccc(F)c(C(=O)c2c[nH]c3ncc(-c4cnc(N5CCN(C(=O)CN6CCC(c7ccc(N[C@H]8CCC(=O)NC8=O)cc7)CC6)CC5)nc4)cc23)c1F` [Example 25, 5-[2-[4-[2-[4-[4-[[(3S)-2,6-dioxo-3-piperidyl]amino]phenyl]-1-piperidyl]acetyl]piperazin-1-yl]pyrimidin-5-yl]-3-[3-[[ethyl(methyl)sulfamoyl]amino]-2,6-difluoro-benzoyl]-1H-pyrrolo[2,3-b]pyridine] yielded a DC50 of 3.63 nM. The Emax under setting [1] was 6.36%.
The molecule `CCN(C)S(=O)(=O)Nc1ccc(F)c(C(=O)c2c[nH]c3ncc(-c4cnc(N5CCN(C(=O)CN6CCC(c7ccc(NC8CCC(=O)NC8=O)cc7)CC6)CC5)nc4)cc23)c1F` (stereo not drawn) [Example A10, 5-[2-[4-[2-[4-[4-[(2,6-Dioxopiperidin-3-yl)amino]phenyl]piperidin-1-yl]acetyl]piperazin-1-yl]pyrimidin-5-yl]-3-[3-[[ethyl(methyl)sulfamoyl]amino]-2,6-difluorobenzoyl]-1H-pyrrolo[2,3-b]pyridine] gave a 50% degradation concentration (DC50) of 3 nM. The maximal response (Emax) under setting [1] was found to be 8%.

The values above are taken from US12559492B2, “BRAF degraders” (C4 Therapeutics, Inc., priority 2020, dated 2026).
